Legend:
[1] = target: T1, St-DHQ1 (Salmonella typhi, UniProt P24670); test: DHQ1 assay, kinetic parameters of the substrate; assay type: biochemical; conditions: PPB 50 mM, pH 7.2, 25°C
T1 construct: made in house
T1 sequence (P24670 1-252): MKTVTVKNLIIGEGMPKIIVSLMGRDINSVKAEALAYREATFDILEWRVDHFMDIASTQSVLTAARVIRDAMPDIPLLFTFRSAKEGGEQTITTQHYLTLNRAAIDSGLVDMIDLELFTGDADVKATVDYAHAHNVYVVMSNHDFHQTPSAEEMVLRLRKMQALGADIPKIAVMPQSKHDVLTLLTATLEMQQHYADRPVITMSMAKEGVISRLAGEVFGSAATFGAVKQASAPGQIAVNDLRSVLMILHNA
Description: (§1) The St-DHQ1 and Sa-DHQ1 enzyme were purified as described previously ([Moore et al., 1993]; [Nichols et al., 2004]). Concentrated solutions of St-DHQ1 (0.85 mg mL^−1, 30.74 µM) and Sa-DHQ1 (4 mg mL^−1, 148.13 µM) were stored in potassium phosphate buffer (PPB) (50 mM) and DTT (1 mM) at pH 6.6 and −80°C. When required for assays, aliquots of the enzyme stocks were diluted in water and buffer and stored on ice. DHQ1 was assayed in the forward direction by monitoring the increase in absorbance at 234 nm in the UV spectrum due to the absorbance for the enone-carboxylate chromophore of 3-dehydroshikimic acid (ε/M^−1 cm^−1 12 000). Standard assay conditions were PPB (50 mM, pH 7.2) at 25°C. Each assay was initiated by addition of the substrate. Solutions of 3-dehydroquinic acid 1) were calibrated by equilibration with DHQ1 and measurement of the change in the UV absorbance at 234 nm due to formation of the enone-carboxylate chromophore of 3-dehydroshikimic acid. […] The program GraFit 7.0.3. (Erithacus Software Ltd.). was used for data fitting.

[2] = target: T2, Sa-DHQ1 (Staphylococcus aureus, UniProt Q6GII7); test: DHQ1 assay, kinetic parameters of the substrate; assay type: biochemical; conditions: PPB 50 mM, pH 7.2, 25°C
T2 construct: made in house
Description: as §1

[3] = target: T1, St-DHQ1; test: MALDI mass spectrometry of enzyme incubated with ligand; assay type: binding; conditions: for covalent modification of enzyme (MALDI): similar studies, incubation with ligand
Description: The covalent modification of DHQ1 by compound 6 was also corroborated by mass spectrometry analysis of samples incubated with and without ligand.
St-DHQ1 (3.1 µM from a stock protein concentration of 0.85 mg mL^−1) and Sa-DHQ1 (3.0 µM from a stock protein concentration of 4 mg mL^−1) was incubated with various aqueous solutions of ligands 6–8 in PPB (0.5 mL, 50 mM) at pH 7.2, 25°C. The activity was determined progressively over a 24 h period under the standard assay conditions using aliquots from the incubation samples and the control. The activity was measured at a substrate concentration of 14 µM. The initial rate of each assay was measured. The samples were concentrated and washed (5 mM ammonium carbonate) for MALDI analysis by centrifugation at 4 °C using Amicon® centrifugal filters (Amicon Ultra-10). The samples were freeze-dried, diluted with 5 mM ammonium bicarbonate (5 µL) and analyzed by mass spectrometry using a MALDI TOF/TOF Mass Spectrometer (4,800 Analyzer, AbSciex). The ProteoMass™ MALDI calibration kit (Merck) was employed for calibration and sanipic acid as a matrix. Spectra were analyzed using the Data Explorer™ Software. Experiments were performed in triplicate.
Figure S3. MALDI spectra of St-DHQ1 after incubation with 3-hydroxylaminoquinic acid (6) (left) and the control (right). Incubation conditions were potassium phosphate buffer (50 mM, pH 7.0), 25 °C and (1:120) protein/ligand ratio, 24 h. After incubation and for MALDI analysis, the samples were successively washed with 5 mM […] by centrifugation at 4 °C using Amicon® centrifugal filters and concentrated. Sinapic acid was used as a matrix.
(1 picture or pasted object on this page, not shown here)

[4] = target: T1, St-DHQ1; test: Time-dependent irreversible inhibition assay (incubation of enzyme with ligand, residual activity at 234 nm); assay type: biochemical
Description: (§2) The inhibitory capacity of compounds 6–8 against DHQ1 enzymes from S. aureus and S. typhi was evaluated. For irreversible inhibition assays, the enzyme was incubated with the ligand and its remaining activity was progressively determined using aliquots from the incubation samples and the control. For reversible competitive inhibition assays, the activity of the enzyme in the presence of increasing amount of ligand was evaluated. The enzyme activity was determined by monitoring the increase in absorbance at 234 nm in the UV spectrum due to formation of the enone-carboxylate chromophore of the enzyme product, 3-dehydroshikimic acid 2).
as §1
(§3) Incubation of Sa-DHQ1 and St-DHQ1 (2.96 µM from a stock protein concentration of […]) with various aqueous solutions of compounds 6–8 (30–4,000 µM) was carried out in PPB (0.5 mL, 50 mM) at pH 7.2 at 25°C. The activity was determined progressively in duplicate over a 3 h period under the standard assay conditions (see above) using aliquots from the incubation samples and the control. Semilogarithmic plots of residual activity as a function of time with a range of inhibitor concentrations [I] were performed to obtain the first-order rate constant, k obs, calculated from the slope, and is related with k inact KI constants by Equation 1 implemented in GraFit ([Plapp, 1982]): kobs=(kinact I) / (KI)+I) (1)

[5] = target: T2, Sa-DHQ1; test: as above; assay type: biochemical
Description: as §2, §1, §3

[6] = target: T1, St-DHQ1; test: Reversible competitive inhibition assay (initial rates, IC50); assay type: biochemical; conditions: substrate 14 µM, PPB 50 mM, pH 7.2, 25°C
Description: as §2, §1
(§4) IC50 values were determined in duplicate by measuring the initial rates at fixed enzyme and substrate concentrations (14 µM) in the absence and in the presence of various compounds concentrations, which was adjusted to the Equation 2 implemented in GraFit: y=Emax / 1+(IC50 / x)^n (2)
(§5) were y is the observed effect at inhibitor concentration x, Emax corresponds to the maximum effect, IC50 is the concentration at which a 50% […] is obtained, and n is the slope of the curve.

[7] = target: T2, Sa-DHQ1; test: as above; assay type: biochemical; conditions: substrate 14 µM, PPB 50 mM, pH 7.2, 25°C
Description: as §2, §1, §4, §5

[8] = tested on: Salmonella enterica DHQ1 enzyme; conditions: crystal structure PDB ID 4GUI, 1.78 Å; ref Light et al., 2014; cited from earlier work
[9] = PPB 50 mM, pH 7.2, 25°C, time-dependent irreversible inhibition

T2 sequence (Q6GII7 whole entry): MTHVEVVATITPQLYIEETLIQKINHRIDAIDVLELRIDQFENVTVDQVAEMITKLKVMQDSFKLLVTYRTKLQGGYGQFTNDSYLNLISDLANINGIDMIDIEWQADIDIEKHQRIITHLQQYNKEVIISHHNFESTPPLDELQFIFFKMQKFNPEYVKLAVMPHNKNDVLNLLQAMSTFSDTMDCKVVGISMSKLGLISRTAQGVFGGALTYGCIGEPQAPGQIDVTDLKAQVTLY

Structure (SMILES)	type of inhibition [4]	type of inhibition [5]	IC50 [6] [µM]	IC50 [7] [µM]	covalent modification of enzyme (MALDI) [3]	other results
O=C1C[C@@](O)(C(=O)O)C[C@@H](O)[C@@H]1O [3-dehydroquinic acid]	–	–	–	–	–	K m [1]: 24 ± 3 µM; k cat [1]: 1.1 ± 0.1 s⁻¹; K m [2]: 18 ± 3 µM; k cat [2]: 255 ± 12 s⁻¹
O=C(O)[C@@]1(O)C[C@@H](O)[C@H](O)[C@H](NO)C1 [Compound 6, (1S,3R,4R,5R)-1,3,4-trihydroxy-5-hydroxylaminocyclohexane-1-carboxylic acid]	time-dependent irreversible inhibitor	time-dependent irreversible inhibitor	–	–	–	additional mass of covalently modified enzyme (MALDI) ([3]; St-DHQ1, ∼1:120 enzyme/ligand ratio, 24 h, 25°C): 158; k inact ([4]; PPB 50 mM, pH 7.2, 25°C): 13 ± 1 ms^−1; Ki [4, 9]: 130 ± 12 µM; k inact ([5]; PPB 50 mM, pH 7.2, 25°C): 8 ± 1 ms^−1; Ki [5, 9]: 90 ± 8 µM
O=C(O)[C@@]1(O)C[C@@H](O)[C@H](O)[C@@H]2O[C@@H]21 [Compound 8, (1S,2R,4R,5S,6S)-2,4,5-trihydroxy-7-oxabicyclo[4.1.0]heptane-2-carboxylic acid]	reversible competitive inhibitors	reversible competitive inhibitors	> 2000	> 2000	No modifications	–
O=C(O)[C@]1(O)C[C@@H](O)[C@@H](O)[C@H](O)C1 [(–)-quinic acid (9), (–)-quinic acid]	–	–	–	–	–	covalent adduct formation with the enzyme [8]: does not form a covalent adduct
N[C@@H]1C[C@@](O)(C(=O)O)C[C@@H](O)[C@@H]1O [Compound 7, (1S,3R,4R,5R)-3-amino-1,4,5-trihydroxycyclohexane-1-carboxylic acid]	reversible competitive inhibitors	reversible competitive inhibitors	528 ± 33	482 ± 19	No modifications	–

— article PMC9902378, “Quinate-based ligands for irreversible inactivation of the bacterial virulence factor DHQ1 enzyme—A molecular insight” (Frontiers in Molecular Biosciences, 2023)
